Measurements: patent US20240307409A1, “ARGININE METHYLTRANSFERASE INHIBITOR AND USE THEREOF” (Cytosinlab Therapeutics Co., Ltd., priority 2021, published 2024)

What was measured:
Format in all cases: biochemical
PRMT1 = PRMT1 (Homo sapiens, UniProt Q99873); experiment: PRMT1 enzyme activity test; conditions: 0.5 nM PRMT1, 3H-SAM, peptide
Outline: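 Radiometric methylation assay: 0.5 nM PRMT1 preincubated 15 min at room temperature with compound (10-point 3-fold series, 1% DMSO) in pH 8.0 Tris buffer with Tween-20 and DTT. 0.25 uM ³H-SAM and 0.1 uM biotinylated peptide then reacted 120 min. Product captured on streptavidin FlashPlate and counted; IC50 from four-parameter fit of % inhibition.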

PRMT4 = biological target: T1, PRMT4 (Homo sapiens, UniProt Q86X55); experiment: PRMT panel selectivity test, PRMT4
T1 sequence (Q86X55 1-608): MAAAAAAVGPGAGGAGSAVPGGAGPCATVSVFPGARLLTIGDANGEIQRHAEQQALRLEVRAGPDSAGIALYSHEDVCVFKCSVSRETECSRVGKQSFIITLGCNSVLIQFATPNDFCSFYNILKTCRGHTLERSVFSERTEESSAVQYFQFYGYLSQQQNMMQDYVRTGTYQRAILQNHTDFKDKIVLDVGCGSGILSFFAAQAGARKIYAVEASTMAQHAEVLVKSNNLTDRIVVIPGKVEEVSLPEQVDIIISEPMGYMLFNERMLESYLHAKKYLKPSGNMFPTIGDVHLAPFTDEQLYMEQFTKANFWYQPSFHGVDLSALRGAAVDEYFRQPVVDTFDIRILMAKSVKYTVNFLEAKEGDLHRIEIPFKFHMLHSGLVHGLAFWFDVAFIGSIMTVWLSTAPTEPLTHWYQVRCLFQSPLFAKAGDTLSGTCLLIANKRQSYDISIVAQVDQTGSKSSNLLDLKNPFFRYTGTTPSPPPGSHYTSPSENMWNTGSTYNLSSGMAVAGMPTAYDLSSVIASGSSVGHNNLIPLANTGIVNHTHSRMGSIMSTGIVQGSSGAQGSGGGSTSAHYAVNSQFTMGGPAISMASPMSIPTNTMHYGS
Experimental: [The procedure below names another target; the source says it served here with some conditions changed.] (§1) This experiment was assayed in a buffer prepared on the same day consisting of 10 mMTirs-HCl (pH=8.0), […] and 1 mM DTT. The compounds were prepared to the highest inhibitor concentration ultimately required in the 100× reaction with 100% DMSO and then transferred to one well of a 384-well Echo plate (Echo-eligible 384-well polypropylene microplates 2.0, transparent, flat-bottomed) and sequentially diluted in the next well with a 3-fold dilution of 100% DMSO, and so on, with a total of 10 concentrations based on Precision. 100% DMSO was added to two empty wells as control well without compound and control well without enzyme in the same 384-well Echo plate. 100 nL of compound was transferred from each well of the 384-well Echo plate to a 384-well assay plate (OptiPlate (384-well, white)) via the Echo 550 liquid processor. For wells with compounds and control well without compound, a mixture containing PRMT1 enzyme (5 uL) was added to the 384-well assay plate. For control well without enzyme, a mixture containing test buffer (5 uL) was added instead. The compounds were allowed to incubate with PRMT3 for 15 minutes at room temperature, and then a mixture containing cold SAM and peptide (5 uL) was added to start the reaction (final volume=10 uL). The final concentrations of the components were as follows: 0.1 nM for PRMT3, 15 uM for SAM, 0.05 uM for peptide, and 1% DMSO. After 60 min of incubation at room temperature, the reaction was terminated by the addition of donor and acceptor magnetic beads (15 uL) with a final concentration of 10 ug/mL diluted with AlphaLISA Epigenetics Buffer. The 384-well assay plate was incubated at room temperature for 60 min and the relative fluorescence units (RFU) were nextly determined using a multi-mode plate reader in Alpha mode (Ex680/Em615).
(§2) Curve fitting: the raw data were copied from Reader and the inhibition values were calculated in Excel by equation (1). […]

PRMT3 = PRMT3 (Homo sapiens, UniProt O60678); experiment: PRMT panel selectivity test, PRMT3; conditions: AlphaLISA
Experimental: as §1, §2

Chain of PRMT3 (O60678 whole entry): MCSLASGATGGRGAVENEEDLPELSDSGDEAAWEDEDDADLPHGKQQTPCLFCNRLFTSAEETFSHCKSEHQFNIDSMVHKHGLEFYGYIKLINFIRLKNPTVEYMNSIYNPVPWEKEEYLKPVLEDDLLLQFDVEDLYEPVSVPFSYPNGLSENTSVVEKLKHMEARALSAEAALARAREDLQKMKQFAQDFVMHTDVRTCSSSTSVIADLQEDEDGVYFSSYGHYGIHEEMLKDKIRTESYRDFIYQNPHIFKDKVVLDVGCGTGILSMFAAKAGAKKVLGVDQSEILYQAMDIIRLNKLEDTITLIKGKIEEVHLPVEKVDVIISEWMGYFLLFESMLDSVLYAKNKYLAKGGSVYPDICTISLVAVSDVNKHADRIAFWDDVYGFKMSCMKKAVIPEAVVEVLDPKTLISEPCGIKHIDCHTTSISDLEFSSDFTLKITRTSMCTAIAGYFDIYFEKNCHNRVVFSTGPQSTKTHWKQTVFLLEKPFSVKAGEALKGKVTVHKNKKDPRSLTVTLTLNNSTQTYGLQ
Chain of PRMT1 (Q99873 whole entry): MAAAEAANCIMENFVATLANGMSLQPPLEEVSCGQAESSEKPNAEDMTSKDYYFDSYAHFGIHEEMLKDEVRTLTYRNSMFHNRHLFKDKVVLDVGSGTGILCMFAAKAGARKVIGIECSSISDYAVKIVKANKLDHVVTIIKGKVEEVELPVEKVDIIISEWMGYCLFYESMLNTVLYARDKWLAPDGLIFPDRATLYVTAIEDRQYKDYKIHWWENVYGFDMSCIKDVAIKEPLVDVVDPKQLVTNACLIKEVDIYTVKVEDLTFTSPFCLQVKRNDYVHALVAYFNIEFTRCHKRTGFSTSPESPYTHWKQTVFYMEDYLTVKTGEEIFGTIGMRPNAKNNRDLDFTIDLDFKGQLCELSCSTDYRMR

Compound	IC50 (PRMT1)	IC50 (PRMT4)	IC50 (PRMT3)
CNCCN(C)Cc1ccccc1C1CCN(c2ccccc2)CC1 [P023]	< 50 nM	< 50 nM	< 50 nM
CNCCN(C)Cc1ncccc1N1CCc2ccccc2CC1 [P118]	< 50 nM	50 to 500 nM	50 to 500 nM
CCOCC1(COCC)CCC(c2cccnc2CN(C)CCNC)CC1 [P207]	< 50 nM	< 50 nM	50 to 500 nM
